Source: paper PMC12331936, “Structural Insights into the Protein Mannosyltransferase from Mycobacterium tuberculosis reveal a WW-Domain-Like Protein Motif in Bacteria” (Communications Biology, 2025)

Assays:
R441A MtPMT = format: cell-based, M. tuberculosis

Row | Compound | restored FasC mannosylation, level of the wild type MtPMT (R441A MtPMT) | chemical complementation of inactive D74A mutant (D74A MtPMT) | chemical complementation of inactive D176A mutant (D176A MtPMT)
1 | Cl.N=C(N)N [guanidine chloride, guanidine hydrochloride] | ~ 25 ± 5% |  | 
2 | c1c[nH]cn1 [imidazole] | ~ 25 ± 5% |  | 
3 | CC(=O)[O-].[Na+] [sodium acetate] |  | ineffective | ineffective
4 | [N-]=[N+]=[N-].[Na+] [sodium azide] |  | ineffective | ineffective
